Reference: patent publication US9676820B2, “Method for inhibiting proliferation of high LIX1L-expressing tumor cell, and tumor cell proliferation-inhibiting peptide” (National University Corporation Hamamatsu University School …, priority 2013, dated 2017)

Key:
MKN45 cell strains = assay: Cancer mouse model transplanted with MKN45 cell strain; assay type: in vivo; conditions: nude mice with MKN45 transplant
Protocol: Rearing of 10 nude male mice (BALB/cAJcl-nu/nu, purchased from CLEA Japan, Inc.) at the age of 7 weeks was started, and MKN45 cell strains separately cultured were transplanted into the mice by being subcutaneously injected thereinto on day 31. The day on which the transplantation was performed was set as day 0, the mice were divided into two groups (peptide 1-administered group and control peptide-administered group) of 5 mice on day 14 of the transplantation, 4 mice were selected among the 5 mice from each group, and the peptide 1 or the control peptide was administered. The remaining one mouse was set as a spare. In the peptide 1-administered group, 100 μL of a 30 μM peptide 1 solution (solution prepared by adding a methylcellulose solution to the solution after the peptide 1 was dissolved in PBS (−)) was subcutaneously injected into a tumor site (site into which the MKN45 cell strain was injected) 4 times every 3 days. In the control peptide-administered group, 100 μL of a 30 μM control peptide solution (solution prepared by adding a methylcellulose solution to the solution after the control peptide was dissolved in PBS (−)) was subcutaneously injected into a tumor site 4 times on the same days as those in the peptide 1-administered group.
The results in which the points of time (days) at which a peptide solution was administered to each mouse and the volume (mm^3) of a tumor site were temporally measured are shown in FIG. 21. For the volume of the tumor site, the width and the length of the tumor site determined from the appearance of the mouse were measured and calculated using the following formula. [Volume(mm^3) of Tumor Site]=([Width(mm) of Tumor Site]^2×[Length(mm) of Tumor Site])/2
The “width of tumor site” referred herein means a maximum width of a portion in which the skin has risen due to the tumor and the “length of tumor site” means a maximum length of a portion in which the skin has risen due to the tumor.

293 FLG = assay: MTT assay, 293 FLG cells; assay type: cell-based
Protocol: (§1) Specifically, first, cells plated in a 96-well microplate such that the density thereof became 5×10^3 cells/well were cultured for one night in a culture solution having the same composition as those in the reference examples. […] After the culturing, an MTT-containing PBS solution was added to the culture solution, and the mixture was incubated for 4 hours. Then, formazan which was generated by putting 100 μL of isopropanol (containing 34 (v/v) % of hydrochloric acid) into each of the wells was dissolved. The absorbance of each of the wells of the microplate at 570 nm was measured using a microplate reader. As controls, culturing was performed in the same manner except that no peptide was added to the strains, an MTT assay was performed thereon, and the absorbance at 570 nm was measured (untreated).
(§2) In the method for measuring the viable cell counts, cells were cultured for 3 days similarly to Example 1 except that a 25 μM (10 μM for an HL-60 strain, a K562 strain, and a U937 strain) culture solution containing a control peptide or a peptide 1 was used, and the viable cell counts were measured. As a comparison, culturing was performed similarly to the above using a culture solution containing no peptide, and the viable cell counts were measured (untreated).
(§3) In addition, in the method for performing an MTT assay, cells were cultured for 72 hours similarly to Example 2 except that a peptide to be added to a strain was set to a control peptide or a peptide 1 at 25 μM (10 μM for an HL-60 strain, a K562 strain, and a U937 strain), an MTT assay was performed thereon, and the absorbance at 570 nm was measured. As a comparison, culturing was performed similarly to the above using a culture solution containing no peptide, and the MTT assay was performed thereon (untreated).
(§4) Specifically, the cells were cultured for 72 hours similarly to Example 2 except that a peptide to be added to a cell was set to a peptide 1, 2, 5, or 6, MTT assays were performed thereon, and the absorbance at 570 nm was measured. As a comparison, culturing was performed similarly to the above using a culture solution containing no peptide, and the MTT assay was performed thereon (untreated).
(§5) Specifically, the cells were cultured for 72 hours similarly to Example 2 except that peptides to be added to cell strains were set to peptides 7 to 14, MTT assays were performed thereon, and the absorbance at 570 nm was measured. […]
(§6) Specifically, the cells were cultured for 72 hours similarly to Example 2 except that a peptide to be added to a cell strain was set to a peptide 15 or 16, an MTT assay was performed thereon, and the absorbance at 570 nm was measured. […]

293 FLG/LIX1L = assay: MTT assay, 293 FLG/LIX1L cells; assay type: cell-based
Protocol: as §1, §2, §3, §4, §5, §6

K562 strain = assay: MTT assay, K562 strain; assay type: cell-based
Protocol: (§7) Specifically, first, cells plated in a 96-well microplate such that the density thereof became 5×10^3 cells/well were cultured for one night in a culture solution having the same composition as those in the reference examples. Thereafter, the culture solution was exchanged with 100 μL of a culture solution of which the concentration of peptides is 0 μM to 100 μM for culturing for 72 hours. After the culturing, an MTT-containing PBS solution was added to the culture solution, and the mixture was incubated for 4 hours. Then, formazan which was generated by putting 100 μL of isopropanol (containing 34 (v/v) % of hydrochloric acid) into each of the wells was dissolved. The absorbance of each of the wells of the microplate at 570 nm was measured using a microplate reader. As controls, culturing was performed in the same manner except that no peptide was added to the strains, an MTT assay was performed thereon, and the absorbance at 570 nm was measured (untreated).
Specifically, the cells were cultured for 72 hours similarly to Example 2 except that a peptide to be added to a cell strain was set to peptide 1, 3, or 4, or a control peptide, an MTT assay was performed thereon, and the absorbance at 570 nm was measured.
as §2, §3, §4
as §4, with “that peptides” for “that a peptide”, “to” for “to a”, “cell strains were” for “cell was”, “to peptides 7 to 14,” for “to a peptide 1, 2, 5, or 6,”
Specifically, the cells were cultured for 72 hours similarly to Example 2 except that a peptide to be added to a cell strain was set to a peptide 15 or 16, an MTT assay was performed thereon, and the absorbance at 570 nm was measured. As a comparison, culturing was performed similarly to the above using a culture solution containing no peptide, and the MTT assay was performed thereon (untreated).

HL-60 strain = assay: MTT assay, HL-60 strain; assay type: cell-based
Protocol: as §7, §2, §3

KATO-III strain = assay: MTT assay, KATO-III strain; assay type: cell-based; conditions: MTT assay, 72 hours
Protocol: as §7

[1] = 72 hours, peptide concentrations up to 250 μM
[2] = peptide 25 μM, 3 days / 72 hours
[3] = peptide 10 μM, 3 days / 72 hours

CC(C)[C@H](NC(=O)[C@H](Cc1ccc(O)cc1)NC(=O)[C@H](CS)NC(=O)[C@@H](NC(=O)[C@H](Cc1ccc(O)cc1)NC(=O)[C@@H]1CCCN1C(=O)[C@@H]1CCCN1C(=O)[C@H](CO)NC(=O)[C@H](CC(N)=O)NC(=O)[C@H](CO)NC(=O)[C@@H]1CCCN1C(=O)CCCCCNC(=O)[C@H](CCCNC(=N)N)NC(=O)[C@H](CCCNC(=N)N)NC(=O)[C@H](CCCNC(=N)N)NC(=O)[C@H](CCC(N)=O)NC(=O)[C@H](CCCNC(=N)N)NC(=O)[C@H](CCCNC(=N)N)NC(=O)[C@H](CCCCN)NC(=O)[C@H](CCCCN)NC(=O)[C@H](CCCNC(=N)N)NC(=O)CNC(=O)[C@@H](N)Cc1ccc(O)cc1)C(C)C)C(N)=O [peptide 1, YGRKKRRQRRR-X-PSNSPPYVCYV-NH2]
body weight (MKN45 cell strains; 100 μL of 30 μM peptide solution 4 times, vs spare mice given nothing): no particularly significant change
volume (size) of the tumor site (MKN45 cell strains; 100 μL of 30 μM peptide solution subcutaneously into tumor site 4 times every 3 days from day 14): rarely changed
cell proliferation (MTT assay, absorbance at 570 nm) (293 FLG; [1]): inhibited
cell proliferation (viable cell counts and MTT assay) (293 FLG; [2]): not inhibited
cell proliferation (MTT assay, absorbance at 570 nm) (293 FLG/LIX1L; [1]): inhibited
cell proliferation (viable cell counts and MTT assay) (293 FLG/LIX1L; [2]): inhibited
cell proliferation (MTT assay, absorbance at 570 nm) (K562 strain; [1]): inhibited
concentration at which a dominant effect of inhibiting the cell proliferation was recognized (K562 strain; MTT assay, 72 hours): greater than or equal to 6.25 μM
absorbance at 570 nm (MTT assay), influence on cell proliferation (K562 strain; peptide 0 μM to 100 μM, 72 hours): inhibited
cell proliferation (viable cell counts and MTT assay) (K562 strain; [3]): inhibited
concentration at which a dominant effect of inhibiting the cell proliferation was recognized (HL-60 strain; MTT assay, 72 hours): greater than or equal to 6.25 μM
cell proliferation (viable cell counts and MTT assay) (HL-60 strain; [3]): inhibited
concentration at which a dominant effect of inhibiting the cell proliferation was recognized (KATO-III strain): greater than or equal to 25 μM
